Source: patent US20260022142A1, “MACROCYCLIC IMMUNOMODULATORS” (Bristol-Myers Squibb Company, priority 2022, published 2026)
Bridge positions count the residues as written; N and C are the ends. Square brackets hold non-standard residues; d marks the D form. Peptide text beside a SMILES is read from it. * marks the point of attachment. ξ: configuration not given here. Bip = N[C@@H](Cc1ccc(-c2ccccc2)cc1)C(=O)O; Phe(3-Me) = Cc1cccc(C[C@H](N)C(=O)O)c1; 4Pal = N[C@@H](Cc1ccncc1)C(=O)O; 3Thi = N[C@@H](Cc1ccsc1)C(=O)O; Cha = N[C@@H](CC1CCCCC1)C(=O)O; Cit = NC(=O)NCCC[C@H](N)C(=O)O; Ile(3ξ) = CCC(C)[C@H](N)C(=O)O; Carboxymethyl = O=C(O)C*; Orn = NCCC[C@H](N)C(=O)O; Aun = NCCCCCCCCCCC(=O)O; Dab = NCC[C@H](N)C(=O)O; Dap = NC[C@H](N)C(=O)O; AEEA = NCCOCCOCC(=O)O

biological target: T1, PD-1/PD-L1 interaction (PE-labeled human PD-L1-Ig binding to Jurkat cell line over-expressing human PD-1) (Homo sapiens, UniProt Q15116); test: Jurkat-PD-1 Cell Binding High-Content Screening Assay (CBA); format: cell-based; details: Jurkat cell line over-expressing human PD-1; PE-labeled PD-L1-Ig 20 nM final; read-out: Jurkat hPD1-PDL1 IC50
T1 construct: expressed in transfected cells; host or cells: Jurkat
T1 sequence (Q15116 25-288): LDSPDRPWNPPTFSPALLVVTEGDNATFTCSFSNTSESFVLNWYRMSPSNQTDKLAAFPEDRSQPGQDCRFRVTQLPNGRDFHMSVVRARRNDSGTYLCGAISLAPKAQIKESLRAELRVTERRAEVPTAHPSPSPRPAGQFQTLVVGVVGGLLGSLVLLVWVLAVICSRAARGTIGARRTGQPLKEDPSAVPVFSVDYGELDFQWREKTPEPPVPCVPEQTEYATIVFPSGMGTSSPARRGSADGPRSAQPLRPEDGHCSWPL
In short: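 Read-out is high-content imaging of cell-bound phycoerythrin-tagged PD-L1-Ig on fixed, Hoechst-counterstained Jurkat cells that over-express human PD-1. Compound exposure lasts 2 h at 37° C before the labeled ligand (20 nM final) is added for a further hour.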

Point of comparison: `CC(C)C[C@H]1NC(=O)[C@H](CCCN)NC(=O)[C@H](C(C)C)NC(=O)[C@H](Cc2ccc(-c3ccccc3)cc2)NC(=O)[C@H](C(C)C)NC(=O)[C@H](Cc2c[nH]c3ccccc23)NC(=O)[C@H](CC(=O)O)NC(=O)[C@H](Cc2c[nH]cn2)NC(=O)[C@H](CCCNC(=N)N)NC(=O)CSC[C@@H](C(=O)N[C@@H](CCN)C(=O)NCCCCCCCCCCC(=O)O)NC(=O)[C@H](CCCCN)NC(=O)[C@H](C(C)C)NC(=O)[C@H](CC2CCCCC2)NC(=O)[C@H](CCN)NC1=O` [Compound 3290] ({CH2CO}-RHDWV[Bip]V[Orn][dL][Dab][Cha]VKC[Dab][Aun]-OH; thioether N-14), IC50 0.0395 µM. Against it:
- CC(C)C[C@H]1NC(=O)[C@H](CCN)NC(=O)[C@H](C(C)C)NC(=O)[C@H](Cc2ccc(-c3ccccc3)cc2)NC(=O)[C@H](C(C)C)NC(=O)[C@H](Cc2c[nH]c3ccccc23)NC(=O)[C@H](CC(=O)O)NC(=O)[C@H](Cc2ccc(OCC(=O)O)cc2)NC(=O)[C@H](Cc2ccsc2)NC(=O)CSC[C@@H](C(=O)NCCOCCOCC(=O)N[C@@H](CCN)C(=O)NCCCCCCCCCCC(=O)O)NC(=O)[C@H](CCCNC(=N)N)NC(=O)[C@H](C(C)C)NC(=O)[C@H](CC2CCCCC2)NC(=O)[C@H](CCN)NC1=O [Compound 3283] ({CH2CO}-[3Thi]Y(Carboxymethyl)DWV[Bip]V[Dab][dL][Dab][Cha]VRC[AEEA][Dab][Aun]-OH; thioether N-14) — 2.9-fold lower, 0.0138 µM
- CC(C)C[C@H]1NC(=O)[C@H](CCN)NC(=O)[C@H](C(C)C)NC(=O)[C@H](Cc2ccc(-c3ccccc3)cc2)NC(=O)[C@H](C(C)C)NC(=O)[C@H](Cc2c[nH]c3ccccc23)NC(=O)[C@H](CC(=O)O)NC(=O)[C@H](Cc2ccc(OCC(=O)O)cc2)NC(=O)[C@H](Cc2ccsc2)NC(=O)CSC[C@@H](C(=O)NCCOCCOCC(=O)N[C@@H](CCN)C(=O)NCCCCCCCCCCC(=O)O)NC(=O)[C@H](CCCN)NC(=O)[C@H](C(C)C)NC(=O)[C@H](CC2CCCCC2)NC(=O)[C@H](CCN)NC1=O [Compound 3284] ({CH2CO}-[3Thi]Y(Carboxymethyl)DWV[Bip]V[Dab][dL][Dab][Cha]V[Orn]C[AEEA][Dab][Aun]-OH; thioether N-14) — 3.9-fold lower, 0.0102 µM
- CCC(C)[C@@H]1NC(=O)[C@H](Cc2ccc(-c3ccccc3)cc2)NC(=O)[C@H](C(C)C)NC(=O)[C@H](Cc2c[nH]c3ccccc23)NC(=O)[C@H](CC(=O)O)NC(=O)[C@H](Cc2ccc(OCC(=O)O)cc2)NC(=O)[C@H](CCCNC(=N)N)NC(=O)CSC[C@@H](C(=O)N[C@H](CC(N)=O)C(=O)NCCCCCCCCCCC(=O)O)NC(=O)[C@H](CCCN)NC(=O)[C@H](C(C)C)NC(=O)[C@H](CC2CCCCC2)NC(=O)[C@H](CCN)NC(=O)[C@@H](CC(C)C)NC(=O)[C@H](CCN)NC1=O (stereo partly drawn) [Compound 3285] ({CH2CO}-RY(Carboxymethyl)DWV[Bip][Ile(3ξ)][Dab][dL][Dab][Cha]V[Orn]C[dN][Aun]-OH; thioether N-14) — 4.2-fold lower, 0.0093 µM
- CC(C)C[C@H]1NC(=O)[C@H](CCN)NC(=O)[C@H](C(C)C)NC(=O)[C@H](Cc2ccc(-c3ccccc3)cc2)NC(=O)[C@H](C(C)C)NC(=O)[C@H](Cc2c[nH]c3ccccc23)NC(=O)[C@H](CC(=O)O)NC(=O)[C@H](Cc2ccc(OCC(=O)O)cc2)NC(=O)[C@H](Cc2ccsc2)NC(=O)CSC[C@@H](C(=O)N[C@H](CC(N)=O)C(=O)NCCCCCCCCCCC(=O)O)NC(=O)[C@H](CCCCN)NC(=O)[C@H](C(C)C)NC(=O)[C@H](CC2CCCCC2)NC(=O)[C@H](CCN)NC1=O [Compound 3286] ({CH2CO}-[3Thi]Y(Carboxymethyl)DWV[Bip]V[Dab][dL][Dab][Cha]VKC[dN][Aun]-OH; thioether N-14) — 4.8-fold lower, 0.0083 µM
- CC(C)C[C@H]1NC(=O)[C@H](CCCN)NC(=O)[C@H](C(C)C)NC(=O)[C@H](Cc2ccc(-c3ccccc3)cc2)NC(=O)[C@H](C(C)C)NC(=O)[C@H](Cc2c[nH]c3ccccc23)NC(=O)[C@H](CC(=O)O)NC(=O)[C@H](Cc2ccc(OCC(=O)O)cc2)NC(=O)[C@H](CCCNC(=N)N)NC(=O)CSC[C@@H](C(=O)N[C@@H](CCN)C(=O)NCCCCCCCCCCC(=O)O)NC(=O)[C@H](CN)NC(=O)[C@H](C(C)C)NC(=O)[C@H](CC2CCCCC2)NC(=O)[C@H](CCN)NC1=O [Compound 3287] ({CH2CO}-RY(Carboxymethyl)DWV[Bip]V[Orn][dL][Dab][Cha]V[Dap]C[Dab][Aun]-OH; thioether N-14) — 3.7-fold lower, 0.0108 µM
- CC(C)C[C@H]1NC(=O)[C@H](CCCN)NC(=O)[C@H](C(C)C)NC(=O)[C@H](Cc2ccc(-c3ccccc3)cc2)NC(=O)[C@H](C(C)C)NC(=O)[C@H](Cc2c[nH]c3ccccc23)NC(=O)[C@H](CC(=O)O)NC(=O)[C@H](Cc2ccc(OCC(=O)O)cc2)NC(=O)[C@H](CCCNC(=N)N)NC(=O)CSC[C@@H](C(=O)N[C@@H](CCN)C(=O)NCCCCCCCCCCC(=O)O)NC(=O)[C@H](CCN)NC(=O)[C@H](C(C)C)NC(=O)[C@H](CC2CCCCC2)NC(=O)[C@H](CCN)NC1=O [Compound 3288] ({CH2CO}-RY(Carboxymethyl)DWV[Bip]V[Orn][dL][Dab][Cha]V[Dab]C[Dab][Aun]-OH; thioether N-14) — 2.9-fold lower, 0.0137 µM
- CC(C)C[C@H]1NC(=O)[C@H](CCCN)NC(=O)[C@H](C(C)C)NC(=O)[C@H](Cc2ccc(-c3ccccc3)cc2)NC(=O)[C@H](C(C)C)NC(=O)[C@H](Cc2c[nH]c3ccccc23)NC(=O)[C@H](CC(=O)O)NC(=O)[C@H](Cc2ccc(OCC(=O)O)cc2)NC(=O)[C@H](CCCNC(=N)N)NC(=O)CSC[C@@H](C(=O)N[C@@H](CCN)C(=O)NCCCCCCCCCCC(=O)O)NC(=O)[C@H](CCCN)NC(=O)[C@H](C(C)C)NC(=O)[C@H](CC2CCCCC2)NC(=O)[C@H](CCN)NC1=O [Compound 3289] ({CH2CO}-RY(Carboxymethyl)DWV[Bip]V[Orn][dL][Dab][Cha]V[Orn]C[Dab][Aun]-OH; thioether N-14) — 3-fold lower, 0.013 µM
- Cc1cccc(C[C@@H]2NC(=O)[C@H](CC(=O)O)NC(=O)[C@H](Cc3ccc(OCC(=O)O)cc3)NC(=O)[C@H](CCCNC(=N)N)NC(=O)CSC[C@@H](C(=O)N[C@@H](CCN)C(=O)NCCCCCCCCCCC(=O)O)NC(=O)[C@H](CCCNC(N)=O)NC(=O)[C@H](C(C)C)NC(=O)[C@H](CC3CCCCC3)NC(=O)[C@H](CCN)NC(=O)[C@@H](CC(C)C)NC(=O)[C@H](CCCN)NC(=O)[C@H](C(C)C)NC(=O)[C@H](Cc3ccc(-c4ccccc4)cc3)NC(=O)[C@H](C(C)C)NC2=O)c1 [Compound 3291] ({CH2CO}-RY(Carboxymethyl)D[Phe(3-Me)]V[Bip]V[Orn][dL][Dab][Cha]V[Cit]C[Dab][Aun]-OH; thioether N-14) — 6.5-fold lower, 0.0061 µM
- Cc1cccc(C[C@@H]2NC(=O)[C@H](CC(=O)O)NC(=O)[C@H](Cc3ccc(OCC(=O)O)cc3)NC(=O)[C@H](CCCNC(=N)N)NC(=O)CSC[C@@H](C(=O)N[C@@H](CCN)C(=O)NCCCCCCCCCCC(=O)O)NC(=O)[C@H](CCCN)NC(=O)[C@H](C(C)C)NC(=O)[C@H](CC3CCCCC3)NC(=O)[C@H](CCN)NC(=O)[C@@H](CC(C)C)NC(=O)[C@H](CCCN)NC(=O)[C@H](C(C)C)NC(=O)[C@H](Cc3ccc(-c4ccccc4)cc3)NC(=O)[C@H](C(C)C)NC2=O)c1 [Compound 3292] ({CH2CO}-RY(Carboxymethyl)D[Phe(3-Me)]V[Bip]V[Orn][dL][Dab][Cha]V[Orn]C[Dab][Aun]-OH; thioether N-14) — 3.3-fold lower, 0.012 µM
- Cc1cccc(C[C@@H]2NC(=O)[C@H](CC(=O)O)NC(=O)[C@H](Cc3ccc(OCC(=O)O)cc3)NC(=O)[C@H](CCCNC(=N)N)NC(=O)CSC[C@@H](C(=O)NCCOCCOCC(=O)N[C@@H](CCN)C(=O)NCCCCCCCCCCC(=O)O)NC(=O)[C@H](CCCCN)NC(=O)[C@H](C(C)C)NC(=O)[C@H](CC3CCCCC3)NC(=O)[C@H](CN)NC(=O)[C@@H](CC(C)C)NC(=O)[C@H](CCCN)NC(=O)[C@H](C(C)C)NC(=O)[C@H](Cc3ccc(-c4ccccc4)cc3)NC(=O)[C@H](C(C)C)NC2=O)c1 [Compound 3293] ({CH2CO}-RY(Carboxymethyl)D[Phe(3-Me)]V[Bip]V[Orn][dL][Dap][Cha]VKC[AEEA][Dab][Aun]-OH; thioether N-14) — 7.9-fold lower, 0.005 µM
- CC(C)C[C@H]1NC(=O)[C@H](CCCN)NC(=O)[C@H](C(C)C)NC(=O)[C@H](Cc2ccc(-c3ccccc3)cc2)NC(=O)[C@H](C(C)C)NC(=O)[C@H](Cc2c[nH]c3ccccc23)NC(=O)[C@H](CC(=O)O)NC(=O)[C@H](Cc2ccc(OCC(=O)O)cc2)NC(=O)[C@H](Cc2ccncc2)NC(=O)CSC[C@@H](C(=O)N[C@@H](CCN)C(=O)NCCCCCCCCCCC(=O)O)NC(=O)[C@H](CN)NC(=O)[C@H](C(C)C)NC(=O)[C@H](CC2CCCCC2)NC(=O)[C@H](CCN)NC1=O [Compound 3294] ({CH2CO}-[4Pal]Y(Carboxymethyl)DWV[Bip]V[Orn][dL][Dab][Cha]V[Dap]C[Dab][Aun]-OH; thioether N-14) — 2.5-fold lower, 0.0155 µM
- Cc1cccc(C[C@@H]2NC(=O)[C@H](CC(=O)O)NC(=O)[C@H](Cc3c[nH]cn3)NC(=O)[C@H](CCCNC(=N)N)NC(=O)CSC[C@@H](C(=O)NCCOCCOCC(=O)N[C@@H](CCN)C(=O)NCCCCCCCCCCC(=O)O)NC(=O)[C@H](CO)NC(=O)[C@H](C(C)C)NC(=O)[C@H](CC3CCCCC3)NC(=O)[C@H](CCN)NC(=O)[C@@H](CC(C)C)NC(=O)[C@H](CCCN)NC(=O)[C@H](C(C)C)NC(=O)[C@H](Cc3ccc(-c4ccccc4)cc3)NC(=O)[C@H](C(C)C)NC2=O)c1 [Compound 3295] ({CH2CO}-RHD[Phe(3-Me)]V[Bip]V[Orn][dL][Dab][Cha]VSC[AEEA][Dab][Aun]-OH; thioether N-14) — 3.2-fold lower, 0.0125 µM
- Cc1cccc(C[C@@H]2NC(=O)[C@H](CC(=O)O)NC(=O)[C@H](Cc3c[nH]cn3)NC(=O)[C@H](CCCNC(=N)N)NC(=O)CSC[C@@H](C(=O)N[C@@H](CCCCN)C(=O)NCCCCCCCCCCC(=O)O)NC(=O)[C@H](CCCN)NC(=O)[C@H](C(C)C)NC(=O)[C@H](CC3CCCCC3)NC(=O)[C@H](CCN)NC(=O)[C@@H](CC(C)C)NC(=O)[C@H](CCCN)NC(=O)[C@H](C(C)C)NC(=O)[C@H](Cc3ccc(-c4ccccc4)cc3)NC(=O)[C@H](C(C)C)NC2=O)c1 [Compound 3296] ({CH2CO}-RHD[Phe(3-Me)]V[Bip]V[Orn][dL][Dab][Cha]V[Orn]CK[Aun]-OH; thioether N-14) — 1.9-fold lower, 0.0203 µM
